# Measurements as given in patent publication US5028625A, “Acid addition salt of ibuprofen and meglumine” (priority 1989, dated 1991).
# Where a name gives a salt, the structure may show the parent alone.
# Key:
# [1] = Redissolution in water of evaporated salt residue, pH and taste; format: physicochemical
# Experimental: The meglumine salt of ibuprofen was formed by dissolving 10 grams of Ibuprofen, USP, in 330 milliliters of Alcohol, USP to which was added 10 grams of Meglumine, USP. The ibuprofen-meglumine molar ratio was 1:1.0566.
# [2] = in alcohol; cited from earlier work
"ibuprofen concentration of clear solution as the meglumine salt ([1]; 740 milligrams of residue in 7.5 milliliters of water, 200 mg/5ml)",pH of salt solution ([1]; approximately 4% w/v ibuprofen in water),SMILES,meglumine alcohol solubility limit [2] [grams in 100 ml]
approximately 4 % w/v,8.35,CC(C)Cc1ccc(C(C)C(=O)O)cc1 (stereo not drawn) [meglumine ibuprofen salt],–
–,–,"CNC[C@H](O)[C@@H](O)[C@H](O)[C@H](O)CO [meglumine, Meglumine]",1.2
